According to PubChem BioAssay AID248 (DTP/NCI, 2004):
“And” between values parts separate entries of the source, which are not always exact repeats. Equal values may be shown once. Toxic doses and inconclusive results are not listed. Rule as the data show it: active = T/C of 150% or more; inactive = T/C below 125%. Peptide text beside a SMILES is read from it. * marks the point of attachment. Bn = c1ccc(C*)cc1

System: L1210 leukemia ip in BDF1 mice, survival T/C
Experiment: NCI In Vivo Anticancer Drug Screen. Data for tumor model L1210 Leukemia (intraperitoneal) in B6D2F1 (BDF1) mice
Conditions: endpoint: mean survival time, higher = longer survival
How it was run: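 In this screen, tumor-bearing mice given compound are compared to those given vehicle, and their survival values are reported as a treated-to-control quotient.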

[1] = dose: 100.0 mg/kg/injection, schedule: Q04DX003 (ip), vehicle: saline
[2] = dose: 200.0 mg/kg/injection, schedule: Q04DX003 (ip), vehicle: saline
[3] = dose: 400.0 mg/kg/injection, schedule: Q04DX003 (ip), vehicle: saline
[4] = dose: 100.0 mg/kg/injection, schedule: Q04DX003 (ip), vehicle: saline with Tween-80
[5] = dose: 200.0 mg/kg/injection, schedule: Q04DX003 (ip), vehicle: saline with Tween-80
[6] = dose: 100.0 mg/kg/injection, schedule: Q01DX009 (ip), vehicle: Klucel (hydroxypropylcellulose) (HPC)
[7] = dose: 200.0 mg/kg/injection, schedule: Q01DX009 (ip), vehicle: Klucel (hydroxypropylcellulose) (HPC)
[8] = dose: 75.0 mg/kg/injection, schedule: Q01DX001 (ip), vehicle: other
[9] = dose: 25.0 mg/kg/injection, schedule: Q04DX003 (ip), vehicle: saline
[10] = dose: 400.0 mg/kg/injection, schedule: Q04DX003 (ip), vehicle: saline with Tween-80
[11] = dose: 400.0 mg/kg/injection, schedule: Q01DX009 (ip), vehicle: Klucel (hydroxypropylcellulose) (HPC)

Measured: T/C

COc1cccc2c1C(=O)c1c(O)c3c(c(O)c1C2=O)C[C@@](O)(/C(C)=N/NS(C)(=O)=O)C[C@@H]3OC1CC(N)C(O)C(C)O1 (stereo partly drawn)
inactive: dose: 0.25 mg/kg/injection, schedule: Q04DX003 (ip), vehicle: water 103 % of control | dose: 0.5 mg/kg/injection, schedule: Q04DX003 (ip), vehicle: water 103 % of control | dose: 1.0 mg/kg/injection, schedule: Q04DX003 (ip), vehicle: water 103 % of control | dose: 2.0 mg/kg/injection, schedule: Q04DX003 (ip), vehicle: water 105 % of control | dose: 4.0 mg/kg/injection, schedule: Q01DX009 (ip), vehicle: water 105 % of control | dose: 4.0 mg/kg/injection, schedule: Q04DX003 (ip), vehicle: water 107 % of control | dose: 8.0 mg/kg/injection, schedule: Q01DX009 (ip), vehicle: water 113 % of control | dose: 8.0 mg/kg/injection, schedule: Q04DX003 (ip), vehicle: water 101 % of control and 113 % of control | dose: 16.0 mg/kg/injection, schedule: Q01DX009 (ip), vehicle: water 121 % of control | dose: 16.0 mg/kg/injection, schedule: Q04DX003 (ip), vehicle: water 104 % of control and 115 % of control | dose: 64.0 mg/kg/injection, schedule: Q01DX009 (ip), vehicle: water 97 % of control

Cc1c(C#N)c2ccccc2c2ccccc12
inactive: [1] 103 % of control | [2] 103 % of control | [3] 95 % of control

COc1ccc(C(=O)c2no[n+]([O-])c2C(=O)c2ccc(OC)cc2)cc1
inactive: [4] 90 % of control | [5] 94 % of control

CC1=CC2C(C3C=CC2(C)C(=O)C3(C)Cc2ccccc2)C(C)(Cc2ccccc2)C1=O (stereo not drawn)
inactive: dose: 50.0 mg/kg/injection, schedule: Q01DX009 (ip), vehicle: Klucel (hydroxypropylcellulose) (HPC) 94 % of control | dose: 75.0 mg/kg/injection, schedule: Q01DX001 (ip), vehicle: Klucel (hydroxypropylcellulose) (HPC) 100 % of control | [6] 96 % of control | dose: 150.0 mg/kg/injection, schedule: Q01DX001 (ip), vehicle: Klucel (hydroxypropylcellulose) (HPC) 99 % of control | [7] 93 % of control | dose: 300.0 mg/kg/injection, schedule: Q01DX001 (ip), vehicle: Klucel (hydroxypropylcellulose) (HPC) 96 % of control

CC(=O)c1cccc(NC(=O)Nc2ccc(F)c([N+](=O)[O-])c2)c1
inactive: [6] 95 % of control | [7] 96 % of control

Cc1[nH]nc(-c2cccnc2)c1N=NN1CCC(C(N)=O)CC1
inactive: [8] 103 % of control

COC(=O)C(CC(C)C)NC(=O)C(N)Cc1ccc(OCc2ccccc2)cc1 (stereo not drawn) (H-Tyr(Bn)-Leu-OMe; configuration not given here)
inactive: dose: 6.25 mg/kg/injection, schedule: Q01DX009 (ip), vehicle: saline with Tween-80 111 % of control | dose: 12.5 mg/kg/injection, schedule: Q01DX009 (ip), vehicle: saline with Tween-80 111 % of control | dose: 25.0 mg/kg/injection, schedule: Q01DX009 (ip), vehicle: saline with Tween-80 106 % of control and 90 % of control | dose: 25.0 mg/kg/injection, schedule: Q04DX003 (ip), vehicle: saline with Tween-80 98 % of control | dose: 50.0 mg/kg/injection, schedule: Q04DX003 (ip), vehicle: saline with Tween-80 104 % of control | [4] 96 % of control and 102 % of control

CCOC(=O)c1cnc[nH]c1=O
inactive: dose: 100.0 mg/kg/injection, schedule: Q04DX003 (ip), vehicle: Klucel (hydroxypropylcellulose) (HPC) 100 % of control | dose: 200.0 mg/kg/injection, schedule: Q04DX003 (ip), vehicle: Klucel (hydroxypropylcellulose) (HPC) 100 % of control | dose: 400.0 mg/kg/injection, schedule: Q04DX003 (ip), vehicle: Klucel (hydroxypropylcellulose) (HPC) 87 % of control

O=C1OCC(Cl)=C1Cl
inactive: dose: 6.25 mg/kg/injection, schedule: Q04DX003 (ip), vehicle: saline 101 % of control | dose: 12.5 mg/kg/injection, schedule: Q04DX003 (ip), vehicle: saline 101 % of control | [9] 103 % of control

COc1ccc(/C=N/NC(=O)c2ccccc2OC)cc1
inactive: dose: 100.0 mg/kg/injection, schedule: Q01DX009 (ip), vehicle: saline 108 % of control | [1] 108 % of control | dose: 130.0 mg/kg/injection, schedule: Q01DX009 (ip), vehicle: saline 104 % of control | dose: 200.0 mg/kg/injection, schedule: Q01DX009 (ip), vehicle: saline 92 % of control | [2] 102 % of control | dose: 300.0 mg/kg/injection, schedule: Q01DX009 (ip), vehicle: saline 92 % of control | dose: 400.0 mg/kg/injection, schedule: Q01DX009 (ip), vehicle: saline 114 % of control | [3] 102 % of control

Cc1cccc2c1C(=O)OC2(CC(=O)O)c1ccccc1 (stereo not drawn)
inactive: dose: 37.5 mg/kg/injection, schedule: Q04DX002 (ip), vehicle: saline with Tween-80 101 % of control | dose: 75.0 mg/kg/injection, schedule: Q04DX002 (ip), vehicle: saline with Tween-80 101 % of control | dose: 150.0 mg/kg/injection, schedule: Q04DX002 (ip), vehicle: saline with Tween-80 101 % of control

COc1cc(/C=C(/C)[N+](=O)[O-])c([N+](=O)[O-])cc1OC
inactive: dose: 100.0 mg/kg/injection, schedule: Q01DX001 (ip), vehicle: saline 98 % of control | dose: 200.0 mg/kg/injection, schedule: Q01DX001 (ip), vehicle: saline 90 % of control

N#C/C(=C\c1c(Cl)cccc1Cl)c1ccc([N+](=O)[O-])cc1
inactive: [4] 106 % of control | [5] 95 % of control | [10] 92 % of control

O=C(Nc1ccc(F)cc1)C(Br)C(Br)c1ccccc1 (stereo not drawn)
inactive: [6] 88 % of control | [7] 102 % of control | [11] 91 % of control

O=C/C=C/C=C/C=C/C=C/C=C\c1ccccc1
inactive: [8] 92 % of control | dose: 150.0 mg/kg/injection, schedule: Q01DX001 (ip), vehicle: other 96 % of control | dose: 300.0 mg/kg/injection, schedule: Q01DX001 (ip), vehicle: other 100 % of control

Clc1cccc(Cl)c1Br
inactive: [6] 100 % of control | [4] 108 % of control | [7] 100 % of control | [5] 104 % of control | [11] 105 % of control | [10] 98 % of control

O=C(NNc1cccc(Cl)c1)C(O)C(O)C(O)C(O)CO (stereo not drawn)
inactive: dose: 50.0 mg/kg/injection, schedule: Q01DX009 (ip), vehicle: saline with Tween-80 107 % of control | dose: 100.0 mg/kg/injection, schedule: Q01DX009 (ip), vehicle: saline with Tween-80 98 % of control | dose: 200.0 mg/kg/injection, schedule: Q01DX009 (ip), vehicle: saline with Tween-80 115 % of control

NNc1n[nH]c(=S)n1N
inactive: [9] 90 % of control | [1] 97 % of control

C/C=C1/CN(C)C2Cc3c([nH]c4ccccc34)C(c3cc4[nH]c5c(c4cc3OC)CCN3CC4CC(C(C)O)C3C5(C(=O)OC)C4)CC1C2C(=O)OC (stereo not drawn)
inactive: dose: 10.0 mg/kg/injection, schedule: Q01DX Z (ip), vehicle: other 97 % of control | dose: 20.0 mg/kg/injection, schedule: Q01DX Z (ip), vehicle: other 93 % of control | dose: 30.0 mg/kg/injection, schedule: Q01DX Z (ip), vehicle: other 90 % of control | dose: 30.0 mg/kg/injection, schedule: Q02DX Z (ip), vehicle: other 104 % of control | dose: 40.0 mg/kg/injection, schedule: Q01DX Z (ip), vehicle: other 95 % of control | dose: 40.0 mg/kg/injection, schedule: Q01DX Z (ip), vehicle: water 90 % of control | dose: 40.0 mg/kg/injection, schedule: Q02DX Z (ip), vehicle: other 103 % of control | dose: 60.0 mg/kg/injection, schedule: Q02DX Z (ip), vehicle: other 102 % of control | dose: 80.0 mg/kg/injection, schedule: Q01DX Z (ip), vehicle: water 94 % of control | dose: 80.0 mg/kg/injection, schedule: Q02DX Z (ip), vehicle: other 95 % of control

CN(C)C(=O)c1cc(C(=O)N(C)C)c[n+](Cc2c(Cl)cccc2Cl)c1
inactive: dose: 18.75 mg/kg/injection, schedule: Q01DX009 (ip), vehicle: saline 95 % of control | dose: 37.5 mg/kg/injection, schedule: Q01DX009 (ip), vehicle: saline 95 % of control | dose: 75.0 mg/kg/injection, schedule: Q01DX001 (ip), vehicle: saline 97 % of control | dose: 75.0 mg/kg/injection, schedule: Q01DX009 (ip), vehicle: saline 94 % of control | dose: 75.0 mg/kg/injection, schedule: Q04DX003 (ip), vehicle: saline 100 % of control | dose: 150.0 mg/kg/injection, schedule: Q01DX001 (ip), vehicle: saline 106 % of control | dose: 150.0 mg/kg/injection, schedule: Q04DX003 (ip), vehicle: saline 96 % of control | dose: 300.0 mg/kg/injection, schedule: Q01DX001 (ip), vehicle: saline 104 % of control
